Here are results for two compounds from paper PMC8760490, “Discovery of novel furanylbenzamide inhibitors that target oncogenic tyrosine phosphatase SHP2 in leukemia cells” (The Journal of Biological Chemistry, 2021).

Entries after “also recorded” stand apart in the source; their conditions may differ.

Assay [1] concerns mutant SHP2 (E76K) in live cells. Further details: method as in PMID 31953320, PMID 32744526. Particulars: cellular thermal shift assay; cited from earlier work.
For another assay, the target named is T1, SHP2-E76K (Homo sapiens, UniProt Q06124, E76K).
T1 construct: Recombinant human full-length SHP2 (1–594) WT and E76K mutants; made in house
T1 sequence (Q06124 1-593 E76K): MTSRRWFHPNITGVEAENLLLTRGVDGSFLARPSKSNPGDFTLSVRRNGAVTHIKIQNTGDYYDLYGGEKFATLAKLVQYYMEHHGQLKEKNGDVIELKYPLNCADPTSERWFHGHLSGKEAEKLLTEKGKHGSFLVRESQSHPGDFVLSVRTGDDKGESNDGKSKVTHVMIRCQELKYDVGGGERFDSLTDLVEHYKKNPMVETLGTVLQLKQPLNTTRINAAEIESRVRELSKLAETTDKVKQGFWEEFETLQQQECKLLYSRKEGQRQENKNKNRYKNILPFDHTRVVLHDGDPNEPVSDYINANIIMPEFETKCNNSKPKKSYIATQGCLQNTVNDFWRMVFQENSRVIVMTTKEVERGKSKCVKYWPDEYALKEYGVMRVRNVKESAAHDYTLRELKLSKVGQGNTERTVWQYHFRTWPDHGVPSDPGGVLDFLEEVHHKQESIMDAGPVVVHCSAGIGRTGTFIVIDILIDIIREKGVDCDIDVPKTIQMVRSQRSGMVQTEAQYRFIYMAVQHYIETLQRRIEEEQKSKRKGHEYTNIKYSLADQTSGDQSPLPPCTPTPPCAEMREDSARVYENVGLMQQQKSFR
Description: Time-dependent inhibition (preincubation 1-60 min). Particulars: preincubation 1, 5, 10, 20 or 60 min with SHP2-E76K. It is filed as biochemical. On the procedure: PTPs contain a highly nucleophilic cysteine that is essential for catalytic activity but is susceptible to oxidation and covalent modifications, which abrogate its nucleophilic function and phosphatase activity ([26]). Because the methylenebenzothiophenone moiety of our inhibitors could potentially act as a Michael acceptor and thus covalently bind to the catalytic cysteine, we tested whether the observed inhibition of SHP2 was dependent on the preincubation time of inhibitor and enzyme. An irreversible covalent inhibitor may show time-dependent inhibition, with increased potency at longer incubation times. Conversely, the potency of a noncovalent inhibitor is expected to be insensitive to the time it is incubated with the enzyme. To test for time-dependent inhibition, SBI-2130 at ten different concentrations was preincubated with SHP2-E76K for 1, 5, 10, 20, or 60 min, before the DiFMUP substrate was added to the reaction mixture and initial rates were recorded (Fig. 3C). […] In addition, we used mass spectrometry to test whether inhibitor:protein adducts are being formed. Specifically, we incubated SHP2cat (5 μM) with SBI-4668 (100 μM) in assay buffer for various times (1, 5, 20, and 60 min) before trypsin proteolysis and subsequent mass spectrometry analysis. […] Finally, we performed a jump-dilution experiment to test for irreversible inhibition of SHP2. […]

Another assay addresses T2, SHP2cat (Homo sapiens, UniProt Q06124).
T2 construct: the SHP2 catalytic domain (SHP2cat; residues 248–527); made in house
T2 sequence (Q06124 248-527): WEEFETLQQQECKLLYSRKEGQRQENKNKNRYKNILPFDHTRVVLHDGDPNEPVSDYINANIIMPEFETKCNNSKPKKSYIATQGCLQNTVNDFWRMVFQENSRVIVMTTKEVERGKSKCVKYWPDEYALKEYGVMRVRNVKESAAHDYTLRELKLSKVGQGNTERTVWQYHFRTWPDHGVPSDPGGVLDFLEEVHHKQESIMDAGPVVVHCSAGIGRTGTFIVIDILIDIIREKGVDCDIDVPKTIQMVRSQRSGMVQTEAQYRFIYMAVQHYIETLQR
Description: Jump-dilution inhibition assay. The following applies: 10× preincubation 10 min, 10× jump dilution. It is filed as biochemical. On the procedure: PTPs contain a highly nucleophilic cysteine that is essential for catalytic activity but is susceptible to oxidation and covalent modifications, which abrogate its nucleophilic function and phosphatase activity ([26]). Because the methylenebenzothiophenone moiety of our inhibitors could potentially act as a Michael acceptor and thus covalently bind to the catalytic cysteine, we tested whether the observed inhibition of SHP2 was dependent on the preincubation time of inhibitor and enzyme. An irreversible covalent inhibitor may show time-dependent inhibition, with increased potency at longer incubation times. […] To test for time-dependent inhibition, SBI-2130 at ten different concentrations was preincubated with SHP2-E76K for 1, 5, 10, 20, or 60 min, before the DiFMUP substrate was added to the reaction mixture and initial rates were recorded (Fig. 3C). […]
SBI-2130 was tested for reversibility of inhibition in a jump-dilution experiment using SHP2cat. […] The enzyme reaction was started by the addition of 5 μl of DiFMUP working solution (100 μM in 50 mM Bis–Tris, pH 6.0, 50 mM NaCl, 0.5 mM EDTA, and 0.01% Tween-20), and fluorescence intensity was measured in kinetic mode (every minute for 10 min) using a Tecan Spark Multimode Microplate Reader as described previously. […] The initial rates were determined from the linear progression curves of the SHP2cat reaction. […]

Regarding `O=C(Nc1ccccc1)c1cc(-c2ccc(/C=C3\Sc4ccccc4C3=O)o2)ccc1O` [SBI-4668, (Z)-2-Hydroxy-5-(5-((3-oxobenzo[b]thiophen-2(3H)-ylidene)methyl)furan-2-yl)-N-phenylbenzamide], in assay [1], the “cellular target engagement with mutant SHP2” value is “direct target engagement”.
For the compound `Nc1ccc(NC(=O)c2cc(-c3ccc(/C=C4\Sc5ccccc5C4=O)o3)ccc2O)cc1` [SBI-2130, (Z)-N-(4-Aminophenyl)-2-hydroxy-5-(5-((3-oxobenzo[b]thiophen-2(3H)-ylidene)methyl)furan-2-yl)benzamide], the time-dependent inhibition result on SHP2-E76K is “No time-dependent inhibition; also recorded: not time dependent”. In addition, the “reversibility: IC50 curves jump dilution vs regular dose–response” value at SHP2cat is on record as “reversible inhibitor; also recorded: practically identical”.
